One compound from patent publication US20050171214A1, “Medicament for improving the failure of accommodation” (Fuji Chemical Industry Co., Ltd., priority 2001, published 2005) can be followed below.

Type in all cases: in vivo, human
The subject of series [1] is VDT workers. Description: Example 2: pattern visual evoked potentials (P100 amplitude and latency). On the procedure: (§1) As a control, 13 persons who have not been administered astaxanthin and have not worked in a VDT operation were indicated as the A group. 26 VDT workers were divided into two groups at random. The B group (13 persons) was orally administered 5 mg of astaxanthin/day for 4 consecutive weeks while the C group (13 persons) was orally administered a placebo for 4 consecutive weeks. No significant difference was recognized in age among the three groups.
(§2) A double-blind test was conducted for the B and C groups.
(§3) Also, 26 workers were selected who had been engaged in a VDT operation for 4 hours per day, for 5 days (Monday to Friday every week) per week and for a year or more. Their eyes were better than twenty-twenty (20/20). All of them wore eyeglasses for accommodation during the VDT operation.
(§4) A double-blind test was conducted with respect to the VDT workers. The VDT workers were divided into an astaxanthin-administration group (n=13, B group) and placebo-administration group (n=13, C group). There was no difference in age among the three groups (Table 2 shown below).
(§5) An astaxanthin capsule (5 mg/capsule) was orally administrated to each of the B group subjects one time a day 30 minutes before supper.
(§6) All of these measurement items were conducted with each right eye of the subjects at a.m. 9:00-12:00 on a Saturday.
The pattern visual evoked potential was recorded according to the method established by the International Society for Clinical Electrophysiology of Vision to measure one positive peak strength (P100) and the latency (the difference […] between N75 peak and P100 peak).
(§7) The data on before and after administration were analyzed statistically using a paired t-test. Also, the data for the A and B groups and those for the A and C groups were measured in an unpaired test. The probability value is below 0.05 that is considered to be significant.

Series [2] deals with VDT workers. Description: Example 2: eye-accommodability (near point minus far point, D'Acomo apparatus), double-blind vs placebo. As to conditions: mean ± SD, dioptres. How it is done: as §1, §2
Also, 26 workers were selected who had been engaged in a VDT operation for 4 hours per day, for 5 days (Monday to Friday every week) per week and for a year or more. […]
The eye-accommodability was evaluated by measurement of the near and far points.
The near point was measured with a D'Acomo apparatus (binocular opening constant point refraction near point ruler, a product of World Optical Corporation) according to the Uozato et al' method (Uozato H, Nagakawa A, Hirai H, Saishin M: A new near-point ruler using constant dioptric stimulus. Folia Ophthalmol Jpn 1988;39:1247-1248).
The far point was measured in the best-corrected refraction for each of the subjects.
The eye-accommodability (dioptres) was calculated by subtracting the far point (dioptres) from the near point (dioptres).
The data on before and after administration were analyzed statistically using a paired t-test. […]

The subject of series [3] is VDT workers. As to the kind of experiment: Example 2: systemic side effects during 4-week administration. As to conditions: B group, 5 mg/day orally for 4 weeks. On the procedure: as §1, §5
For series [4], the system named is person having subjective symptoms of eyestrain or working for VDT operation. Description: Example 1: double-blind accommodability test with an accommodometer, test food vs control food for 4 weeks. As to conditions: intake of astaxanthin for 4 consecutive weeks; difference not recognized in control group. The text has this: People satisfying the following selection standards were used as subjects.
(1) A person having subjective symptoms of eyestrain or working for VDT operation, (2) 1.0 or more of both eyes in vision after correction. (3) 35-59 years old, (4) persons who do notusually take any medicines or health foods, (5) a person who can keep in compliance with all the test-related requirements and take the medical examinations stipulated by the test method.
Persons who have retinal disorders or cataracts were excluded from the subjects.
A test food with 5 mg /capsule of astaxanthin and a control food with 0 mg /capsule of astaxanthin were prepared. The test was conducted in a double-blind method.
After completion of the accommodability test for the subjects using an accommodometer by which the change in the refraction value (accommodation reaction) during moving object can be measured continuously and objectively, and accommodation abnormalities including VDT syndrome can be detected clearly.
A person in charge of the test prepared a subjects' name-list stratified by sex and the test results and handed it to a controller. The controller prepared an allocation table separating the subjects into test food group and control food group based on the name list. In addition, the controller stuck each label with a subject's name on the test food or control food according to the allocation table. […]

Series [5] has as its system VDT workers. As to the kind of experiment: Example 2: critical flicker fusion (C.F.F. tester). How it is done:
as §1, §2, §3, §4, §5, §6
The critical flicker fusion was determined by decreasing the frequency of the signals at a constant speed using a C.F.F. tester (a product of Yagami Co., Ltd.). There was used the average value of the three times value measured by the individual eyes of the subjects.
as §7

Series [6] has as its system VDT workers. As to the kind of experiment: Example 2: eyesight at 5 m and 35 cm using a Landolt ring. As to conditions: B group, 5 mg/day orally for 4 weeks. How it is done: as §3, §4, §5
The eyesight was measured at each distance of 5 m and 35 cm using a Landolt ring.

Setting [7] is: B group baseline, n = 13 eye, mean ± SD.
Setting [8] is: B group, 5 mg/day orally for 4 weeks, n = 13 eye, mean ± SD.
The mark [9] stands for this setting: B group, 5 mg/day orally for 4 weeks, vs before administration.

Several values for one entry are separate records, joined by “and”; a condition that tells them apart may be missing. Equal values may be shown once.

As for `CC1=C(/C=C/C(C)=C/C=C/C(C)=C/C=C/C=C(C)/C=C/C=C(C)/C=C/C2=C(C)C(=O)C(O)CC2(C)C)C(C)(C)CC(O)C1=O` (stereo not drawn) [astaxanthin, 3,3′-dihydroxy-β,β-carotene-4,4′-dione], in the series with VDT workers [1] (setting [7]), the “PVEP-P100 Amplitude (μV), before administration of astaxanthin” value was 5.8±1.7 μV and the “PVEP-P100 Latency (msec), before administration of astaxanthin” value is 102.5 ± 6.9 ms. Also, in the series with VDT workers [1] (setting [8]), the “PVEP-P100 Amplitude (μV), after administration of astaxanthin” value was found to be 5.6±1.6 μV; the “PVEP-P100 Latency (msec), after administration of astaxanthin” value is 104 ± 7.4 ms and 104.8 ± 7.4 ms. Further, in the series on VDT workers [1] (setting [9]), the “Change of amplitude of P100 in pattern visual evoked potentials after administration” value is “did not appreciably change” and the “Change of latency of P100 in pattern visual evoked potentials after administration” value is recorded as “did not appreciably change”. Further, the “Accommodability (D), before administration of astaxanthin” value with VDT workers [2] (B group baseline, n = 13 eye (right eye), p<0.05 lower than non-VDT A group (3.7 ± 1.5)) turned out to be 2.3 ± 1.4 D. Besides, in the series on VDT workers [2] (B group, 5 mg astaxanthin/day orally for 4 consecutive weeks, n = 13 eye, p<0.01 vs before administration), the “Accommodability (D), after administration of astaxanthin” value is given as 2.8±1.6 D. The Systemic side effects result with VDT workers [3] was “no systemic side effects were recognized”. Besides, the “Change of eye-accommodability, before vs after intake” value in series [4] was “increased in the test food group by a statistically significant difference”. Also, the “CFF (Hz), before administration of astaxanthin” value in the series with VDT workers [5] (setting [7]) came out at 39.9 ± 5.3 Hz. For the same compound, the “CFF (Hz), after administration of astaxanthin” value in the series on VDT workers [5] (setting [8]) stood at 38.4 ± 4.8 Hz. Further, the “Change of critical flicker fusion after administration” value with VDT workers [5] (setting [9]) was “did not (appreciably) change”. Besides, the “Change of eyesight at distances of 5 m and 35 cm, before vs after administration” value in the series with VDT workers [6] was “did not appreciably change”.
